# Measured values: US6375979B2 (Somerset Pharmaceuticals, Inc., priority 1995, dated 2002)
# Where “and” joins values, the source holds several entries; their conditions need not be identical. Equal entries are not always repeated. Where two headings read alike, the source gives them in different places.
# Legend:
# wobbler mouse = assay: Wobbler mouse model of motor neuron disease; type: in vivo; conditions: 0.1 mg/kg daily intra-peritoneal for 30 days; range in parentheses
# Protocol: The ability of the enantiomers of DMS to prevent neurological deterioration was examined by administering the agents to the wobbler mouse, an animal model of motor neuron diseases, particularly amyotrophic lateral sclerosis (ALS).
# A 0.1 mg/kg dose of R(−)DMS, S(+)DMS or placebo was administered to wobbler mice by daily intra-peritoneal injection for a period of 30 days in a randomized, double-blind study. At the end of this time mice were examined for grip strength, running time, resting locomotive activity and graded for semi-quantitative paw posture abnormalities, and semi-quantitative walking abnormalities. The investigators who prepared and administered the test drugs to the animals were different than those who analyzed behavioral changes.
# Assays and grading were performed essentially as described in Mitsumoto et al., Ann. Neurol. 36:142-148 (1994). Grip strength of the front paws of a mouse was determined by allowing the animal to grasp a wire with both paws. […] The reading on the dynamometer at the point of release is taken as a measure of grip strength.
# Running time is defined as the shortest time necessary to traverse a specified distance, e.g. 2.5 feet and the best time of several trials is recorded. […]
# Locomotive activity is determined by transferring animals to an examination area in which the floor is covered with a square grid. […]
# MAO-B = biological target: T1, MAO-B (Cavia porcellus, UniProt P58028); assay: In vivo brain MAO-B inhibition in guinea pig hippocampus after 5 days of administration
# T1 construct: by human platelets and/or guinea pig hippocampal homogenates; from tissue; host or cells: guinea pig hippocampus homogenate
# T1 sequence (P58028 1-520): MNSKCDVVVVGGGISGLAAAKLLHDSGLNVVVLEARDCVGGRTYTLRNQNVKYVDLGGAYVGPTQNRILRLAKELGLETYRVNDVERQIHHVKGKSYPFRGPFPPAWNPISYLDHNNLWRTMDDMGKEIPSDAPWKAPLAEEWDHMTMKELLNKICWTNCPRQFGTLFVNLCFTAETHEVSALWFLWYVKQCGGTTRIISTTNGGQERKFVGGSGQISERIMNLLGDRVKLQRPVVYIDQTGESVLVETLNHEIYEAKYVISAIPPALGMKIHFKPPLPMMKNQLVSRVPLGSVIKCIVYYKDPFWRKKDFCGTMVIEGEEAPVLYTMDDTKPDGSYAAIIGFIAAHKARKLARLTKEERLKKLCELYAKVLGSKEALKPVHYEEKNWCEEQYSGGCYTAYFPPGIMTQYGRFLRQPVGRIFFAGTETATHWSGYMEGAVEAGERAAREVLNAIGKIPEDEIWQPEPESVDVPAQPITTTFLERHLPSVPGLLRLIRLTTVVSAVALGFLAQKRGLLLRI
# Protocol: FIG. 20: In Vivo MAO-B Inhibition in Guinea Pig Hippocampus. […] Animals were then sacrificed and the MAO-B activity in the hippocampus portion of the brain was determined. […] The plots were used to estimate the ID50 dosage for each agent.
# Each enantiomer of DMS was administered in vivo by subcutaneous injection once a day for five consecutive days, and inhibition of brain MAO-B activity was then determined.
# [1] = test system: cultured rat mesencephalic cells; assay: Medium change (glutamate receptor dependent) model of cell death: TH positive cells; conditions: medium change model
# Protocol: In these experiments, cells were plated and allowed to stabilize for several days.
# MAO-A = biological target: T2, MAO-A (Rattus norvegicus, UniProt P21396)
# T2 sequence (P21396 1-526): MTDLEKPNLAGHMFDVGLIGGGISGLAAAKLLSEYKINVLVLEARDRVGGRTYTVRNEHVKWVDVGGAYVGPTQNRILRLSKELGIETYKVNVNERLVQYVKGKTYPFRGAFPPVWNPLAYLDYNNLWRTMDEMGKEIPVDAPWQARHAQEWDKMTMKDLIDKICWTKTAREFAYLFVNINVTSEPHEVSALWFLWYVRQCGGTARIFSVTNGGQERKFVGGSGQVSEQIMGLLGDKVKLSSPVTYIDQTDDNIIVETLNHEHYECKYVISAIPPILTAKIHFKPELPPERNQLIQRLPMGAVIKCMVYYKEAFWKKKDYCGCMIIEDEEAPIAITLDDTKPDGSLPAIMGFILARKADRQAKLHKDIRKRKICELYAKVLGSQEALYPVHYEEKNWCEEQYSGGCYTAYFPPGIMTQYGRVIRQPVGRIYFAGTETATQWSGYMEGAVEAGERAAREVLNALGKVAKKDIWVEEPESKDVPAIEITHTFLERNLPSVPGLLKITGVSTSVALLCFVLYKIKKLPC
# [2] = test system: TH positive cells in cultured E-14 embryonic mesencephalic cells
molecule,measurement,setting,value
"C#CCN[C@@H](C)Cc1ccccc1 (single isomer, unassigned) [S(+)DMS, ent-desmethylselegiline]",Mean Grip Strength (gm),wobbler mouse,14 (7-20) gm
same,"times less potent than selegiline, preliminary studies",MAO-B; brain MAO-B in vivo,about 10 times
same,"times less potent than selegiline as an inhibitor of MAO-B, more recent studies","MAO-B; brain MAO-B in vivo, larger group of animals",about 50 times
same,ED50,"MAO-B; guinea pig, sc, read-out: ID50 for MAO-B in Guinea Pig Hippocampal Cortex, once a day for 5 days, subcutaneous, larger group of animals, FIG. 20",~0.5 mg/kg
desmethylselegiline [R(−)DMS],"TH Immunochemistry, % control, Mean",[1]; 0.5 μM,123.9%
same,"TH Immunochemistry, % control, individual cultures",[1]; 0.5 μM,129.0% and 117.6% and 125.2%
same,"TH Immunochemistry, cells/cm^2, Mean",[1]; 0.5 μM,335.63 cells/cm^2
same,"TH Immunochemistry, cells/cm^2, individual cultures",[1]; 0.5 μM,340.0 cells/cm^2 and 310.0 cells/cm^2 and 330.0 cells/cm^2 and 362.5 cells/cm^2
same,"TH Immunochemistry, % control, Mean",[1]; 5.0 μM,132.1%
same,"TH Immunochemistry, % control, individual cultures",[1]; 5.0 μM,122.3% and 129.9% and 137.5% and 138.5%
same,"TH Immunochemistry, cells/cm^2, Mean",[1]; 5.0 μM,348.13 cells/cm^2
same,"TH Immunochemistry, cells/cm^2, individual cultures",[1]; 5.0 μM,322.5 cells/cm^2 and 342.5 cells/cm^2 and 362.5 cells/cm^2 and 365.0 cells/cm^2
same,"TH Immunochemistry, % control, Mean",[1]; 50 μM,144.9%
same,"TH Immunochemistry, % control, individual cultures",[1]; 50 μM,117.6% and 167.9% and 144.1% and 149.8%
same,"TH Immunochemistry, cells/cm^2, Mean",[1]; 50 μM,381.88 cells/cm^2
same,"TH Immunochemistry, cells/cm^2, individual cultures",[1]; 50 μM,310.0 cells/cm^2 and 442.5 cells/cm^2 and 380.0 cells/cm^2 and 395.0 cells/cm^2
same,inhibition,MAO-A; 0.3 µM,0%
same,inhibition,MAO-A; 1 μM,0.7%
same,inhibition,MAO-A; 3 µM,4.1%
same,inhibition,MAO-A; 10 μM,11.8%
same,inhibition,MAO-A; 100 μM,56.1%
same,"Survival of TH positive cells, % cont.",[2]; 0.5 μM,226.62%
same,"Survival of TH positive cells, Mean cells/cm^2",[2]; 0.5 μM,246.00 ± 22.76 cells/cm^2
same,"Survival of TH positive cells, % cont.",[2]; 5 μM,329.76%
same,"Survival of TH positive cells, Mean cells/cm^2",[2]; 5 μM,357.95 ± 25.76 cells/cm^2
same,"Survival of TH positive cells, % cont.",[2]; 50 μM,360.76%
same,"Survival of TH positive cells, Mean cells/cm^2",[2]; 50 μM,391.60 ± 34.93 cells/cm^2
same,Mean Grip Strength (gm),wobbler mouse,20 (0-63) gm
